The target of one data set is G4-RNA EBNA1. Nature of the data set: HT-G4-FID assay: Thiazole Orange displacement from G4-RNA. Conditions: for DC50: K+-100 buffer, pH 7.3, triplicate assays; for affinity for the G-quadruplex structure of EBNA1 (in words, FID data): conclusion from Table 1. The data set is classed as binding, Epstein-Barr virus. Here is the method:
This assay is based on the displacement of a fluorescent indicator (Thiazole Orange, hereinafter TO) from a G4-RNA structure (RNA G-quadruplex of EBNA1) by a putative ligand such as the compounds of the invention (see FIG. 1). This displacement is quantified as % TO displacement. The percentage of TO displacement is calculated from the fluorescence intensity (F) in the presence of a putative ligand, using:
[formula] where F0 is fluorescence intensity of the probe (TO) bound to RNA without added ligand. The percentage of displacement is then plotted as a function of the concentration of added ligand. The RNA affinity of putative ligands is evaluated using the concentration of a ligand required to decrease the fluorescence of the probe by 50% (noted DC50), which is determined graphically from non-linear fitting of the displacement curve. […] 2. Materials and Reagents
Thiazole Orange (TO) and cacodylic acid were purchased from Aldrich and used without further purification. The oligoribonucleotide EBNA1 [5′-r(GGGGCAGGAGCAGGAGGA)-3′] (SEQ ID no 1) purified by reversed-phase HPLC was purchased from Eurogentec.
Stock solutions of the ligands (2 mM in DMSO (dimethylsulfoxyde)) were used for G4-FID assay, unless otherwise stated, and were stored at −20° C. Stock solutions of TO (2 mM in DMSO) were used for G4-FID assay. Fluorescent probe powders and solutions were stored and used, protected from light and used as aliquots to avoid freeze-thaw cycles. HT-G4-FID measurements were performed on a FLUOstar Omega microplate reader (BMG Labtech) with 96-well Non-Binding Surface black with black bottom polystyrene microplates (Corning ref 3650).
For HT-G4-FID assay, the oligonucleotide was dissolved in K^+−100-buffer (10 mM lithium cacodylate, pH 7.3, 100 mM KCl, 1 mM EDTA, 1% DMSO). Oligonucleotide concentrations were determined on the basis of their absorbance at 260 nm. Prior to use, the oligonucleotide was pre-treated by heating at 95° C. for 5 min followed by a slow cooling to 25° C.
Each G4-FID assay is performed in a 96-well microplates. […] The microplate is filled with (a) K^+−100 solution (qs for 200 μL) (b) 10 μL of a solution of pre-folded oligonucleotides (5 μM) and TO (10 μM-2 eq) and (c) an extemporaneously prepared 5 μM ligand solution in K^+−100 buffer (0 to 100 μL along the line of the microplate, i.e., from column […]: 0, 0.125, 0.25, 0.375, 0.5, 0.625, 0.75, 1.0, 1.25, 1.5, 2.0 and 2.5 μM) (see Largy et al., Anal Bioanal Chem 2011, 400, 34193427). After 5 min of orbital shaking at 500 rpm, fluorescence intensity is measured using the following experimental parameters: positioning delay: 0.5 s, 20 flashes per well, emission/excitation filters (nm): 485/520, gain adjusted at 80% of the fluorescence from the most fluorescent well (i.e., a well from column A).
Results are shown in Table 1 below (lower DC50 values indicate higher affinity of compounds to the G4-RNA structure of EBNA1).

Data set [1] relates to GAr-limited antigen presentation. Kind of data set: Antigen presentation assay (IL-2 ELISA). It counts as cell-based. The note with it: 5 μM and 10 μM, compared to DMSO-treated cells. Here is the method: Stars indicate significant results (the higher the number of stars, the more significant). […]ns[…] stands for not significant.
The aim of this assay was to determine if compounds 2a and 11a were able to interfere (suppress) with the GAr-dependent limitation of EBNA1-derived antigenic peptid presentation. H1299 cells were transfected with 235GAr-OVA or OVA plasmids and murine MHC class I Kb plasmids. T-cell proliferation is determined using ELISA assay for Mouse IL-2 (IL-2 is a potent lymphoid cell growth factor which exerts its biological activity primarily in T cell). There is therefore a correlation between the quantity of IL2 released and the T-cell proliferation.
Quantifications of IL2 release following treatment with compounds 2a or 11a, as compared to DMSO-treated cells are shown in the FIG. 7. […] These compounds thus increase T-cell proliferation.
On the technique in general: In an ELISA, binding on a coated surface is turned into a signal by an enzyme label.

A further data set deals with Mutu-1 cells. Kind of data set: Cell viability (MTT assay). It counts as cell-based. Details: dose or concentration left out as unconfirmed. The note with it: concentration range where they increase EBNA1 expression; preliminary results. The procedure:
(§1) Stars indicate significant results (the higher the number of stars, the more significant).
Toxicity of various concentration of G4 ligands on Mutu-1 cells was assessed using the classical MTT assay. The results obtained with various concentrations of compounds 2a and 11a were compared to the result obtained with cells treated by DMSO (compound vehicle).
For orientation: Formazan colour is commonly taken as a measure of viable cells.

Data set [2] relates to interaction between NCL and the G4s of EBNA1 mRNA. Nature of the data set: Proximity ligation assay (PLA) in H1299 cells transfected with EBNA1 plasmids. It counts as cell-based. The note with it: 5 μM.
Text: as §1

As for `C[n+]1ccc(C=NNC(=O)c2cccc(C(=O)NN=Cc3cc[n+](C)c4ccccc34)n2)c2ccccc21.[I-].[I-]` [Compound 2a, N′^2, N′^6-Bis[(1-methylquinolinium-4-yl)methylene]pyridine-2,6-dicarbohydrazide iodide], on G4-RNA EBNA1, the DC50 was determined as 260 ± 50 nM and the “affinity for the G-quadruplex structure of EBNA1 (in words, FID data)” value is “particularly high affinity”. Besides, in data set [1], the “release of IL-2, H1299 cells expressing 235GAr-OVA” value was “significantly increased (two-fold change)” and the “release of IL-2, OVA-expressing cells” value was “no effect”. Further, in the data set on Mutu-1 cells, the “toxicity on Mutu-1 cells” value is “not significantly toxic”. In addition, in data set [2], the “number of PLA dots and their intensity” value is “significantly reduce”; the “number of nuclear PLA dots per cell” value is “significantly reduced”.
On to `C[n+]1ccc(C=NNC(=O)c2ccc3ccc4ccc(C(=O)NN=Cc5cc[n+](C)c6ccccc56)nc4c3n2)c2ccccc21.[I-].[I-]` [Compound 11a, N′^2,N′^9-Bis[(1-methylquinolinium-4-yl)methylene]-1,10-phenanthroline-2,9-dicarbohydrazide iodide], for which, at G4-RNA EBNA1, the DC50 worked out at 300 ± 30 nM and the “affinity for the G-quadruplex structure of EBNA1 (in words, FID data)” value is reported as “particularly high affinity”. In addition, in data set [1], the “release of IL-2, H1299 cells expressing 235GAr-OVA” value is on record as “significantly increased (two-fold change)” and the “release of IL-2, OVA-expressing cells” value was “no effect”. In addition, the “toxicity on Mutu-1 cells” value with Mutu-1 cells is on record as “not significantly toxic”. In addition, in data set [2], the “number of PLA dots and their intensity” value is listed as “significantly reduce”; the “number of nuclear PLA dots per cell” value is “significantly reduced”.

These data come from patent US11406631B2, “Hydrazone derivatives for preventing or treating EBV-related cancers” (Universite de Bretagne Occidentale, priority 2018, dated 2022).
